Consider 20 compounds from patent publication US7678807B2, “Isoquinoline and benzo[H] isoquinoline derivatives, preparation and therapeutic use thereof as antagonists of the histamine H3 receptor” (sanofi-aventis, priority 2005, dated 2010).

For orientation: Ki means the dissociation constant of the complex between target and ligand, obtained from inhibition or displacement. One may read the melting point as the temperature of the solid-liquid transition. The IC50 is the concentration that gives 50% inhibition. Read a high IC50 as weaker potency in that assay.

Structures can show the parent of a compound that is named as a salt.

T1 sequence (Q9Y5N1 whole entry): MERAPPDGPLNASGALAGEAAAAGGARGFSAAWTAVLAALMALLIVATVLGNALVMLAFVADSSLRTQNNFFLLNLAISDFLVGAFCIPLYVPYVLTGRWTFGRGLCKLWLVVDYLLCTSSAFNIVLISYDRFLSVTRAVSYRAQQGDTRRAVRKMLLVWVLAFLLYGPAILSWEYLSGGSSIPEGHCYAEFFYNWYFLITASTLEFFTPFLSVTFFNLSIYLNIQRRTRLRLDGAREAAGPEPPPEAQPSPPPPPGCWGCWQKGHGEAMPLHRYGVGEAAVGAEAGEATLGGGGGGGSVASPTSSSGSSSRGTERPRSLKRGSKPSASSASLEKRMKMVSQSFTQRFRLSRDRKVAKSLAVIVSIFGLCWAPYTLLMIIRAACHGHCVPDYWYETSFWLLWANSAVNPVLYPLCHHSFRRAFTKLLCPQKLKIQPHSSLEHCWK
Chain of native histamine H3 receptor (Q9QYN8 1-397 isoform Q9QYN8-3): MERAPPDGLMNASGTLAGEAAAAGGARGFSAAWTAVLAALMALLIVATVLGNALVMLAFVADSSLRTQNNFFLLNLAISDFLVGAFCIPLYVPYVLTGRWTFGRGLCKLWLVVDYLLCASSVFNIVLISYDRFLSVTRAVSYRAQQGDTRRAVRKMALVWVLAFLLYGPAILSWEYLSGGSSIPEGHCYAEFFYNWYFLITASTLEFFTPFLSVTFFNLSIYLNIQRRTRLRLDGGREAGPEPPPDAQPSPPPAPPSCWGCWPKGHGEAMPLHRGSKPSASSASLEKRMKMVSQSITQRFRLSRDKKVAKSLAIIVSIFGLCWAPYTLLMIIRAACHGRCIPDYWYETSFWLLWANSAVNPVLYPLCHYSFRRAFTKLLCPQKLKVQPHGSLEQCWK

The target of the first data set is native histamine H3 receptor (Rattus norvegicus, UniProt Q9QYN8). Nature of the data set: in vitro affinity assay, specific binding of [3H]-N-α-methylhistamine, adult rat brain membrane preparation. Conditions: adult rat brain membranes, read-out: Ki with regard to the H3 receptors. The text has this:
Thus, the compounds of the invention of formula (I) were subjected to an in vitro affinity assay on the native histamine H3 receptor in an adult rat brain membrane preparation by the specific binding of [^3H]-N-α-methylhistamine to this receptor, according to methods described by Korte, A. et al. in Biochem. Biophys. Res. Commun., 168, 979-986 (1990) and by West, R. E. Jr. et al. in Mol. Pharmacol., 38, 610-613 (1990).
Take `CN1CCCC1CCOc1ccc2c(c1)CN(CC1CCCCC1)CC2` (stereo not drawn) [Compound 5, 2-(cyclohexylmethyl)-7-[2-(1-methylpyrrolidin-2-yl)ethoxy]-1,2,3,4-tetrahydroisoquinoline]: the inhibition constant Ki is 100 pM.

Test system in a further data set: not given
Assay: not given
Conditions: not given
Take `CCCN1CCc2ccc(OCCC3CCCCN3C)cc2C1` (stereo not drawn) (as salt: hydrochloride): the melting point was in the range of 186 to 190 °C.
On to `CN1CCC[C@@H]1CCOc1ccc2c(c1)CN(CC1CCCCC1)CC2` (as salt: hydrochloride) [Compound 6, 2-(cyclohexylmethyl)-7-{2-[(2R)-1-methylpyrrolidin-2-yl]ethoxy}-1,2,3,4-tetrahydroisoquinoline], for which the melting point was 190 to 200 °C.
The compound `CN1CCC[C@@H]1CCOc1ccc2c3c(ccc2c1)CCN(CC1CCCCC1)C3` (as salt: hydrochloride) [Compound 14, 2-(cyclohexylmethyl)-8-{2-[(2R)-1-methylpyrrolidin-2-yl]ethoxy}-1,2,3,4-tetrahydrobenzo[h]isoquinoline] came in with a melting point of 274 to 277 °C.
`CN1CCC[C@H]1CCOc1ccc2c(c1)CN(CC1CCCCC1)CC2` (as salt: hydrochloride) [Compound 18, 2-(Cyclohexylmethyl)-7-(2-[(2S)-1-methylpyrrolidin-2-yl]ethoxy)-1,2,3,4-tetrahydroisoquinoline hydrochloride (1:2)]: the melting point was in the range of 238 to 241 °C.
`CN1CCC[C@H]1CCOc1ccc2c(c1)CN(CC1CCCCC1)CC2` (as salt: oxalate) [Compound 7, 2-(cyclohexylmethyl)-7-{2-[(2S)-1-methylpyrrolidin-2-yl]ethoxy}-1,2,3,4-tetrahydroisoquinoline] gave a melting point of 195 to 199 °C.
For `CN1CCCCC1CCOc1ccc2c(c1)CN(CC1CCCCC1)CC2` (stereo not drawn) (as salt: oxalate) [Compound 9, 2-(cyclohexylmethyl)-7-[2-(1-methylpiperidin-2-yl)ethoxy]-1,2,3,4-tetrahydroisoquinoline], the melting point was 101 to 111 °C.
On the same count and under the same terms, the result for `CN1CCCC1CCOc1ccc2c(c1)CN(Cc1ccccc1)CC2` (stereo not drawn) (as salt: oxalate) [Compound 10, 2-benzyl-7-[2-(1-methylpyrrolidin-2-yl)ethoxy]-1,2,3,4-tetrahydroisoquinoline] reads 143 to 150 °C.
Regarding `CN1CCCC(Oc2ccc3c(c2)CN(Cc2ccccc2)CC3)CC1` (stereo not drawn) (as salt: oxalate) [Compound 11, 2-benzyl-7-[(1-methylazepan-4-yl)oxy]-1,2,3,4-tetrahydroisoquinoline], the melting point was 108 to 116 °C.
In turn, `CN1CCCC(Oc2ccc3c(c2)CN(Cc2cccs2)CC3)CC1` (stereo not drawn) (as salt: oxalate) [Compound 12, 7-[(1-methylazepan-4-yl)oxy]-2-(2-thienylmethyl)-1,2,3,4-tetrahydroisoquinoline] displayed a melting point of 98 to 110 °C.
Turning to `CN1CCC[C@H]1CCOc1ccc2c3c(ccc2c1)CCN(CC1CCCCC1)C3` (as salt: oxalate) [Compound 15, 2-(cyclohexylmethyl)-8-{2-[(2S)-1-methylpyrrolidin-2-yl]ethoxy}-1,2,3,4-tetrahydrobenzo[h]isoquinoline], the melting point lay within 271 to 274 °C.
The compound `CN1CCCC(Oc2ccc3c4c(ccc3c2)CCN(CC2CCCCC2)C4)CC1` (stereo not drawn) (as salt: oxalate) [Compound 16, 2-(cyclohexylmethyl)-8-[(1-methylazepan-4-yl)oxy]-1,2,3,4-tetrahydrobenzo[h]isoquinoline] came in with a melting point of 77 to 82 °C.
Consider `CN1CCCCC1CCOc1ccc2c3c(ccc2c1)CCN(CC1CCCCC1)C3` (stereo not drawn) (as salt: oxalate) [Compound 17, 2-(cyclohexylmethyl)-8-[2-(1-methylpiperidin-2-yl)ethoxy]-1,2,3,4-tetrahydrobenzo[h]isoquinoline], for which the melting point fell in the range of 124 to 127 °C.
Compound `CC(C)CN1CCc2ccc(OCCC3CCCN3C)cc2C1` (stereo not drawn) (as salt: tartrate) yielded a melting point of 77 to 80 °C.
Turning to `CCCCN1CCc2ccc(OC3CCCN(C)CC3)cc2C1` (stereo not drawn) (as salt: tartrate), the melting point was 96 to 107 °C.
Consider `CCCCN1CCc2ccc(OCCC3CCCN3C)cc2C1` (stereo not drawn) (as salt: tartrate), for which the melting point lay within 95 to 105 °C.
In turn, `CCCN1CCc2ccc(OC3CCCN(C)CC3)cc2C1` (stereo not drawn) (as salt: tartrate) gave a melting point of 76 to 97 °C.
`CCCN1CCc2ccc(OCCC3CCCN3C)cc2C1` (stereo not drawn) (as salt: tartrate) showed a melting point of 66 to 91 °C.
Compound `CC(C)CCN1CCc2ccc(OCCC3CCCN3C)cc2C1` (stereo not drawn) (as salt: tartrate) [Compound 3, 2-(3-methylbutyl)-7-[2-(1-methylpyrrolidin-2-yl)ethoxy]-1,2,3,4-tetrahydroisoquinoline] came in with a melting point of 61 to 65 °C.
In turn, `CC(C)CCN1CCc2ccc(OC3CCCN(C)CC3)cc2C1` (stereo not drawn) (as salt: tartrate) [Compound 4, 7-[(1-methylazepan-4-yl)oxy]-2-(3-methylbutyl)-1,2,3,4-tetrahydroisoquinoline] registered a melting point of 60 to 70 °C.

The next data set has as its target T1, human histamine H3 receptor (Homo sapiens, UniProt Q9Y5N1).
T1 construct: expressed in transfected cells; host or cells: CHO cells
Nature of the data set: cAMP formation assay, inhibition of R-α-methylhistamine agonism, receptor transfected into CHO cells (EIA kit). The format is cell-based. Conditions: EIA kit (Amersham). The text has this: The compounds of the invention of formula (I) were also subjected to a cAMP formation assay on the human histamine H3 receptor transfected into CHO cells by the inhibition of the agonism brought about by the specific binding of R-α-methylhistamine to this receptor, according to the methods described by Lovenberg, T. W. et al. in J. Pharmacol. Exp. Ther., 293, 771-778 (2000).
On to `CN1CCCC1CCOc1ccc2c(c1)CN(CC1CCCCC1)CC2` (stereo not drawn) [Compound 5, 2-(cyclohexylmethyl)-7-[2-(1-methylpyrrolidin-2-yl)ethoxy]-1,2,3,4-tetrahydroisoquinoline], for which the concentration for half-maximal inhibition (IC50) was below 10000 pM.
